# Results published in patent publication US10233201B2, “Class of HDAC inhibitors expands the renal progenitor cells population and improves the rate of recovery from acute kidney injury” (University of Pittsburgh—Of the Commonwealth System of …, priority 2012, dated 2019).
# Tests used:
# [1] = system: zebrafish larvae; assay: Phenotypic scoring of edema and survival in zebrafish larvae at 72 hpf; type: in vivo
# From the text: (§1) PTBA was synthesized as described below. Hydroxyurea and aphidicolin were obtained from Sigma-Aldrich.
# Wild type: no visible edema or developmental delay.
# [2] = system: myod1 (somites), fli1a (vasculature), ntla (notochord); assay: In situ hybridization for mesodermal markers myod1, fli1a, ntla in 10-somite embryos; type: in vivo, zebrafish
# Experimental: as §1
# (§2) In situ hybridization and immunocytochemistry: In situ hybridization was performed as previously described with some modifications. 142 Hybridization temperature was 65° C. Embryos were blocked in 2% blocking reagent (Roche) with 5% sheep serum in MAB (100 mM maleic acid and 150 mM NaCl [pH 7.5]). Whole-mount immunocytochemistry with 1:25 mouse anti-α6F antibody (Developmental Studies Hybridoma Bank) and 1:100 Cy3 secondary antibody (Jackson ImmunoResearch) was performed as described previously. 108 Embryos were embedded in JB-4 for sectioning per the manufacturer's instructions (Polysciences), sectioned at 5 μm, and mounted with Cytoseal 60 (Richard-Allan Scientific).
# [3] = system: cyp26a1, cmlc2; assay: In situ hybridization for RA-responsive genes in 18-somite embryos; type: in vivo, zebrafish; settings: 3 μM
# Experimental: as §2
# HDACis are believed to lower the threshold of RA necessary to activate transcription. If PTBA treatment facilitates activation of the RA pathway, then expression of genes responsive to RA signaling should change. […] In a previous study, cmlc2 expression was assessed for RAdependent effects in 18-somite embryos (Keegan, B. R., Feldman, J. L., Begemann, G., Ingham, P. W. & Yelon, D. Retinoic acid signaling restricts the cardiac progenitor pool. Science 307, 247-249, (2005)), therefore embryos were collected at the 18-somite stage for continuity. […]
# [4] = system: conditionally-immortalized mouse podocyte cell line; assay: Podocyte cytotoxicity assay (Cell Titer-Blue); settings: 72 hours, up to 30 μM
# Experimental: For the purposes of these experiments, they function as an indicator of renal toxicity. Following 72 hours of treatment with each compound concentrations ranging from 30 μM to 3 nM, podocyte viability was assessed by measuring residual metabolic activity (FIG. 30).
# Mouse podocytes were plated at a density of 6,000 cells per 200 μl in 96-well plates to elicit log-phase growth. The indicated PTBA analogs were added at 30 μM, 10 μM, 1 μM, 300 nM, 100 nM, 30 nM, or 3 nM and incubated at 33° C. for 72 hours. The final DMSO concentration was maintained at 0.2% in all treatments except 30 μM (0.6%). After incubation, cytotoxicity was analyzed using the Cell Titer-Blue Cell Viability Assay (Promega) per manufacturer's instructions. Reagent (20 μl) was added to 100 μl of cells and plates were incubated for 2 hours at 37° C. Fluorescence was read at 79 560Ex/590Em on a Gemini SpectramaxXS (Molecular Devices) plate reader. Viability was calculated as a percentage of the DMSO control, which was considered 100% viability. Data represent the results of three independent experiments using duplicate wells for each condition. E50 values were determined from the transformed and normalized data by non-linear regression.
# [5] = system: BALB/c mice, severe IR-AKI; assay: Severe ischemia-reperfusion AKI (IR-AKI); type: in vivo, mouse; settings: 7 days at 50 mg/ml starting 24 hrs after severe IR
# Experimental: Surgeries were performed on a water-bath heated platform at 38° C. on 10-12 week old male BALB/c mice. For moderate IR-AKI, mice underwent a right nephrectomy followed by left renal pedicle clamping (800 μm pressure clamp, FST 18052-03). The clamp was released after 26 minutes, and tissue reperfusion was confirmed before completing the surgery. Mice were treated daily with indicated doses of compounds or equivalent volume of 20% 2-hydroxypropyl-β-cyclodextrin in water as vehicle control starting 24 h after injury. Since initial injury with this model is variable, mice were randomly allocated vehicle or m4PTB treatment if their serum creatinine levels were 0.8 to 1.2 mg/dl 24 h post IR injury. Other mice were excluded from further analysis and euthanized. To induce severe IR-AKI, mice underwent left renal pedicle clamping for 30 minutes and delayed contralateral nephrectomy was performed after 8 days.
# For mouse studies, kidney sections were stained using Periodic Acid-Schiff (PAS) to assess renal tubular injury. Tubular injury (casts, dilated tubules, epithelial cell blebbing, and vacuolization, loss of brush borders or nuclei) was scored as described. Sirius red staining was performed using an established protocol used to evaluate renal fibrosis/collagen accumulation in kidney sections. To quantify Sirius red staining we used an Olympus BX-41 microscope equipped with an Olympus DP-72 digital camera system and polarizing light filter. Results are expressed as the mean percent fibrosis for all of the images per slide region (Sirius red positive/total surface area).
# We used of 2-hydroxypropyl-β-cyclodextrin (CD, Sigma), a low toxicity drug formulation vehicle that has been well characterized and used extensively as a hydrophobic drug delivery vehicle. We could achieve concentrations of up to ˜12 mg/ml of PTBA analogues in 20% CD in water (100 mg/kg in volumes of ˜150-250 μl), and daily IP injections with 200 μl 20% CD in water had no effect on renal functional recovery following IR-AKI. Therefore all studies were performed using compounds dissolved in 20% CD. To assess dosing and biological activity of PTBA analogues in mice, CD1 mice were injected with varying doses of compounds IP and kidneys isolated at different time point for histone extraction and analysis of histone H4 acetylation, a marker of HDAC inhibitor activity, as outlined below. Based on results of these studies, mice were treated daily with 1, 10, 50 or 100 mg/kg of compound or equivalent volume of 20% CD vehicle control starting 24 h after injury.
# ˜30 μl blood was obtained by tail vein bleed at different time points, and serum samples frozen after confirming that they had not undergone hemolysis (which interferes with enzymatic analysis for serum creatinine). Serum creatinine was evaluated in duplicate samples using a commercially available enzymatic cascade assay (Pointe Scientific, requires only ˜7 μl of serum). […] Blood Urea Nitrogen (BUN) was determined in duplicate samples using a colorimetric enzymatic assay kit (Infinity Urea, Thermo Scientific), and spot urinary albumin/creatinine ratios determined using a mouse albumin ELISA and urinary creatinine assay kit (Albuwell and Creatinine Companion, Exocell).
# Compounds 22, 25, 29, 36, and 186 were injected for 7 days at […] starting 24 hrs after severe IR treatment. […] Fibrotic (scar) tissue was measured using Sirus Red after 28 days for various markers of fibrosis.
Structure (SMILES),death by 72 hpf ([1]; 3 μM),"edema in 72 hpf larvae ([1]; 3 μM, treatment initiated at 15 somites or later)","phenotype in initial chemical screen ([1]; 10 μM, larvae at 72 hpf)","death by 72 hpf ([1]; 10 μM, n=90)","larvae with edemic phenotype / pericardial edema at 72 hpf ([1]; treated from 2 hpf, 3 μM PTBA, 25 μM PBA, 200 nM TSA)",embryos with unchanged fli1a expression ([2]; 3 μM),"embryos with decreased myod1 expression ([2]; 3 μM PTBA (slightly decreased), 25 μM PBA, 200 nM TSA)","embryos with increased ntla expression ([2]; 3 μM PTBA, 25 μM PBA)",embryos with decreased cmlc2 expression [3],embryos with increased cyp26a1 expression [3],podocyte viability (% of DMSO control) [4],"fibrosis after 28 days (Sirus Red, markers of fibrosis) [5]",serum creatinine at day 9 [5]
"O=C(O)CCCSc1ccccc1 [PTBA, 4-(phenylthio)butanoic acid]",without causing significant death,lack of edema,generated pericardial edema,died before 72 hpf,92%,97%,95%,88%,100%,100%,≥ 50%,–,–
"COC(=O)CCCSc1ccccc1 [UPHD-00025, methyl 4-(phenylsulfanyl) butanoate]",–,–,–,–,–,–,–,–,–,–,–,most reduction in fibrosis,better activity
